Laboratory results published in US11174267B2, “Spiroindolinones and therapeutic uses thereof” (The Regents of the University of California, priority 2015, dated 2021).

What was measured:
[1] = target: T1, Cdr1 (Candida albicans, UniProt Q5ANA3); assay: Efflux of Rhodamine 6G (Cdr1 efflux assay); type: cell-based; settings: C. albicans SC5314; R6G 10 μM; Compound 1 0.3, 3 and 30 μM
T1 construct: endogenous in cells; host or cells: Candida albicans SC5314 (wild type)
Procedure: Efflux of Rhodamine 6 G. Efflux of R6G was measured generally base on a method described previously by Shukla (cited below). Briefly, C. albicans SC5314 grown overnight at 30° C. in SC medium were transferred to fresh SC medium with a 1:50 dilution and grown at 30° C. with constant shaking for about 5 h. Cells were then pelleted, washed twice with phosphate-buffered saline (PBS), and resuspended in PBS as about 3 OD600 nm. The cells were then deenergized for 45 min in […] 2-deoxy-D-glucose. The cells were pelleted, washed and resuspended in PBS as 3 OD600 nm, to which compounds (30 μM or noted) and R6G (10 μM) were added successively and incubated at 30° C. for 40 min. Cells were collected, washed and resuspended in PBS with or without compounds and incubated at 30° C. Two percent glucose was added at time point 20 min to initiate the energy-dependent efflux. Samples were taken out every 10 min and the absorption of the supernatant was detected at 527 nm.
To further determine if the spiroindolinone functions by inhibiting Cdr1, the activity of efflux pumps was determined by monitoring the efflux of R6G, a fluorescent compound that is used for Cdr1 efflux assay in C. albicans. […] Extracellular R6G concentrations were quantified by measuring the absorbance of the supernatant at 527 nm. […]

[2] = tested on: heterozygous deletion C. albicans strains; assay: Whole genome Haploinsufficiency Profiling (HIP); type: cell-based, Candida albicans; settings: 0.05 μM Compound 1 + 0.125 μg/ml FLC vs. 0.125 μg/ml FLC
Procedure: Whole genome Haploinsufficiency Profiling (HIP) analysis. Haplo-Insufficiency Profiling (HIP) with the Double BarCoded (DBC) library was used. A pool of 5,470 heterozygous deletion C. albicans strains constructed by Merck, to identify potential targets for the azole-synergizer, Compound 1. The collection, obtained from Merck Sharp & Dohme Corp in 96-well plates, were transferred to YPD (2% peptone, 1% yeast extract, and 2% glucose) agar plates and grown at 30° C. for 72 h. All colonies were collected from plates and pooled in SC medium, add glycerol to 15% and adjust to the final concentration of 50 OD600 nm per milliliter, store in aliquot at −80° C.
Stock pools were diluted into SC medium to an OD600 nm of 0.0875 and drug treatments were performed in a 1 ml SC medium in 24-well plates. The appropriate drug treatment concentrations were determined before screening. […]
Bioinformatics analysis of HIP. Sequencing reads were first separated by their experimental tags into treatments and then filtered by UPTAG or DNTAG. Among the reads mapped with experimental tags, more than 95% can be filtered exclusively by UPTAG or DNTAGs. Filtered reads were mapped to an artificial genome containing each individual gene in the library identified by UPTAG or DNTAG using bowtie 1.0.
Read counts per gene were calculated using a weighted arithmetic mean of mapped UPTAG and DNTAG read counts. […]

[3] = tested on: cdr1/CDR1 heterozygous mutant and cdr1/cdr1 deletion strain; assay: Azole-synergizer effect in cdr1 mutants; type: cell-based, Candida albicans; settings: with FLC
Text: Strains and growth condition. The wild-type Candida albicans strains used were SC5314 and CaSS1. Cdr1 heterozygous were from Merck Sharp & Dohme Corp. Double Barcoded (DBC) library of heterozygous Candida albicans mutants (version 2013A). Cdr1 deficient mutant was obtained by counterselection of the GRACE library strain on 5-Fluoroorotic Acid (5-FOA) containing plate. Clinical isolated resistant C. albicans were from Dr. David Rogers. Cryptococcus neoformans var. grubii H99 (ATCC 208821) and Candida glabrata BG2, a fluconazole-resistant clinical isolate, were used. Yeast strains were cultured at 30° C. in synthetic complete (SC) medium containing 2% glucose.
Manually Screening. Of the DBC library was carried out in 96-well flat bottom plates. Briefly, BDC library grown in YPD agar were transferred to SC medium in 96-well flat bottom plates with a 96-well pin tool and grown overnight at 30° C. Cell cultures were diluted 1:800 in fresh SC medium with or without compounds and incubated at 30° C. for 24 h. Cell growth was measured with Tecan GENios Plus microplate reader (Tecan, Switzerland).
Small number of outliers in the HIP profiling indicates few off-targets for the compound. To avoid missing genes due to the bias of PCR and sequencing, a manual screening of the DBC library with Compound 1 and FLC in 96 well plates was also carried out.

[4] = Solubility limit in the checkerboard assay; type: physicochemical; settings: checkerboard assay medium
Text: In all of the strains tested, the FIC index was below 0.5, fitting the classical definition of synergy.

T1 sequence (Q5ANA3 whole entry): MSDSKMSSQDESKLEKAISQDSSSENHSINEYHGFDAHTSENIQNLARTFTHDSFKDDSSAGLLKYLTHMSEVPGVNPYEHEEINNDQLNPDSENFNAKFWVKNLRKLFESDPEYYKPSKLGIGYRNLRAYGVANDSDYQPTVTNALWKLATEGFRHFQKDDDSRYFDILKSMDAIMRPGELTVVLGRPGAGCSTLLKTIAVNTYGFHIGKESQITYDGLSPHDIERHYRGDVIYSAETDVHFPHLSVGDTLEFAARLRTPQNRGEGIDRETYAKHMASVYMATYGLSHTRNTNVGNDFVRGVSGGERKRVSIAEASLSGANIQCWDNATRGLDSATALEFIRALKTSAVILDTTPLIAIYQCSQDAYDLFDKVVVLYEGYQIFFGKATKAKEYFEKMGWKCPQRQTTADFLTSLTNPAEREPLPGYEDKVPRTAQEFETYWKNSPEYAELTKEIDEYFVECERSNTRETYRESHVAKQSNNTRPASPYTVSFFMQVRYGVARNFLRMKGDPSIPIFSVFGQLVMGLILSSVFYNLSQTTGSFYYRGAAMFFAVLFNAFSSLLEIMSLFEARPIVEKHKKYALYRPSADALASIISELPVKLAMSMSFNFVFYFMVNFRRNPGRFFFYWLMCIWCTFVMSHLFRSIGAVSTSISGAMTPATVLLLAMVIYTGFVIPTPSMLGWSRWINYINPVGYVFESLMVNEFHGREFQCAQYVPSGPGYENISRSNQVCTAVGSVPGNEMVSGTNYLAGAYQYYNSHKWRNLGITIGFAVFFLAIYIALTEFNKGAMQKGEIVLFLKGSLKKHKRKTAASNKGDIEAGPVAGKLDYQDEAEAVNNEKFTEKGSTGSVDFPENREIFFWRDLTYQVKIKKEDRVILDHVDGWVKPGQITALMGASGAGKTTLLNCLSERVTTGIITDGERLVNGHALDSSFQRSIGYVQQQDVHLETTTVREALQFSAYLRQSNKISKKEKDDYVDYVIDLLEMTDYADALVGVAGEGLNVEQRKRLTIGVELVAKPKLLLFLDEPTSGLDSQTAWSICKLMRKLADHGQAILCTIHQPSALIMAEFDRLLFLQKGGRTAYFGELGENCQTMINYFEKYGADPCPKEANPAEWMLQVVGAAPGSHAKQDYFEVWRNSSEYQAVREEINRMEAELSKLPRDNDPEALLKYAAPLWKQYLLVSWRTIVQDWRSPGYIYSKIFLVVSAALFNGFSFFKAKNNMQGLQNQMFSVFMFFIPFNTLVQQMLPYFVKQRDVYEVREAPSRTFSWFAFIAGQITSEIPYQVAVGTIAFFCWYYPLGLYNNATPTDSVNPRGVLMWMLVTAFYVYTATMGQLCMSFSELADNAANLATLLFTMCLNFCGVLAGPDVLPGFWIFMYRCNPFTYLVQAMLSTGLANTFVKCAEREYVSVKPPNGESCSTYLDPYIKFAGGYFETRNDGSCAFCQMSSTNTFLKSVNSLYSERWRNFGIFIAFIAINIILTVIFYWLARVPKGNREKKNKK

## Cc1c(Cl)ccc2c1NC(=O)[C@]21N[C@H](Cc2ccccc2)[C@@H]2C(=O)N(c3ccc(F)cc3)C(=O)[C@@H]21 (racemic) [Compound 1, (±)-(3R,3′R,3a′R,6a'S)-3′-benzyl-6-chloro-5′-(4-fluorophenyl)-7-methyl-2′,3′,3a′,6a′-tetrahydro-4′H-spiro[indoline-3,1′-pyrrolo[3,4-c]pyrrole]-2,4′,6′(5′H)-trione]
[1]
  energy dependent efflux of R6G: almost totally inhibited
[2]
  HIP profiling, mutants with significant change in abundance: cdr1/CDR1 emerged as the only mutant that showed a significant change in abundance
[3]
  effect as azole-synergizer in cdr1 mutants: significantly enhanced in the cdr1/CDR1 heterozygous mutant but blocked in the cdr1/cdr1 deletion strain

## Cc1c(Cl)ccc2c1NC(=O)[C@@]21[C@H]2C(=O)N(c3ccccc3)C(=O)[C@H]2[C@H]2CN(C(=O)OCc3ccccc3)CCN21 (racemic) [Compound 25, (±)-benzyl (3R,3a′R,3b'S,9a'S)-6-chloro-7-methyl-1′,2,3′-trioxo-2′-phenyl-2′,3′,3a′,3b′,4′,6′,7′,9a′-octahydrospiro[indoline-3,9′-pyrrolo[3′,4′:3,4]pyrrolo[1,2-a]pyrazine]-5′(1′H)-carboxylate]
[4]
  solubility: 30 to 300 µM
